Assay results: patent US12269901B2, “Peptide and use thereof” (ENSOL BIOSCIENCES, INC., priority 2019, dated 2025)

What was measured:
[1] = test system: NOD/ShiLtJ mice with type 1 diabetes (insulitis); experiment: Effect of inhibiting or reducing development of insulitis (insulitis score of pancreatic islets, H&E); assay type: in vivo, mouse; details: NOD mice with type 1 diabetes, 5 mg/kg SC every morning and evening for 14 days, pancreas on 14th day
Excerpt: (§1) The experimental animals were 8-week-old female NOD/ShiLtJ (Jackson Lab). NOD (Non-obese diabetic) mice are animal models of insulitis and type 1 diabetes. In these animals, it is known that type 1 diabetes occurs at 18 weeks of age on average and 90% of incidence thereof occurs by 30 weeks of age. All animals were housed under SPF barrier conditions. This study was approved by the Institutional Animal Care and Use Committee of Osong Medical Innovation Foundation Laboratory Animal Center (Kbio-IACUC-2018-066). The acclimation period was 1 week, and the light/dark cycle was 12 hr ([…]). The temperature was 20±2° C., and the relative humidity was 60 to 80%. Since the incidence of diabetes may be inhibited by intestinal microorganisms, water, the pH of which was adjusted to 2.8-3.2 using HCl, was supplied to the experimental animals.
(§2) The end of the tail of the experimental animals prepared above was wounded once a week and a drop of blood therefrom was measured for blood glucose levels using a glucometer (Roche, Accu-CHEK Performa). When the blood glucose levels were measured to be 250 mg/dL or more and the blood glucose levels remeasured on the third day thereafter was also 250 mg/dL or more, type 1 diabetes was considered to have occurred, and the experiment was conducted.
Two experimental animals with type 1 diabetes were selected as the treatment group of Example 1, and were subcutaneously (SC) administered with 100 μl of the peptide of Example 1 (5 mg/kg). The administration was performed every morning and evening for 14 days, and the blood glucose levels were measured using a glucometer. […] On the 14th day, one experimental animal, the blood glucose levels of which were measured to be less than 250 mg/dL, was selected as a normal group, and was used to compare the insulitis scores of experimental animals with type 1 diabetes and experimental animals without type 1 diabetes.
After measurement of the blood glucose levels on the 14th day, the pancreas was removed from the experimental animals and fixed in 10% […] buffered formalin (10% NBF, Sigma, HT5011) to manufacture a paraffin block. […] For the treatment group of Example 1, the number of islets in two animals was measured, individual islets were classified depending on the stage of insulitis to thus determine the insulitis score, and the number of islets corresponding to each insulitis stage among the total number of islets was represented as a percentage. For the negative control group and the normal group, the insulitis scores were determined as in the treatment group of Example 1, after which the number of islets corresponding to each insulitis stage among the total number of islets was represented as a percentage. […]

[2] = test system: NOD/ShiLtJ mice with type 1 diabetes; experiment: Effect of lowering blood glucose levels in animals with type 1 diabetes; assay type: in vivo, mouse; details: NOD mice with type 1 diabetes, 5 mg/kg SC every morning and evening, up to 14 days, two animals; negative control (PBS) continuously increased
Excerpt: as §1
as §2, with “conducted. […]” for “conducted.”

IFN-γ = IFN-γ mRNA expression in anti-CD28-stimulated splenocytes (RT-PCR, relative to GAPDH); assay type: cell-based; details: splenocytes of diabetic NOD mice, 2 ng/ml anti-mouse CD28, 100 mM peptide, 3 hr
Protocol: (§3) The end of the tail of the experimental animals prepared as in Example 2-1 was wounded once a week, and a drop of blood therefrom was measured for blood glucose levels using a glucometer (Roche, Accu-CHEK Performa). The blood glucose levels were confirmed to be “high” (600 mg/dL or more), the mice were subjected to cervical dislocation, and the spleen was extracted therefrom. A cell strainer (BD, 352350) was placed on a 50 ml tube, and the extracted spleen tissue was passed through the cell strainer using the plunger end of a syringe, after which the tube containing the strained cells was added with HBSS (Hanks' Balanced Salt solution) so that the cells were washed with water, followed by centrifugation (1,000 rpm, 5 min) to remove the supernatant. The cells were suspended with 1 ml of HBSS, added with 10 ml of 1×RBC lysis buffer (Ebioscience, 00-4333-57), mixed with gentle stirring, allowed to stand in ice for 5 min, and then centrifuged (1,000 rpm, 5 min) to remove the supernatant. The resulting cells were added with 10 ml of a RBC lysis buffer once more, allowed to stand in ice for 5 min, further centrifuged (1,000 rpm, 5 min) to remove the supernatant, and then washed two times with 10 ml of HBSS. After final centrifugation (1,000 rpm, 5 min), the cells were suspended with 1 ml of HBSS, 50 μl of the cells were diluted with a trypan blue solution at 1:1, and the number of cells was counted using a hemocytometer. […]
(§4) Thereafter, the cells were centrifuged (1,000 rpm, 5 min) to remove the supernatant, lysed through pipetting with 5 ml of TRIzol (Invitrogen, 15596-018), and allowed to stand at room temperature for 5 min. […] RNA was eluted by adding 30 μl of DEPC-treated water and quantified.
(§5) cDNA was synthesized through the experimental procedure for a cDNA synthesis kit (ELPISbio, EBT-1512) using […] of the quantified RNA. Then, in accordance with the procedure for a PCR (Polymerase Chain Reaction) kit (Solgent, SEF01-M50H), cDNA of each cytokine (IFN-γ, TNF-α, TGF-β1) and a housekeeping gene GAPDH for quantitative determination of changes in cytokine expression were amplified. […]

TNF-α = TNF-α mRNA expression in anti-CD28-stimulated splenocytes (RT-PCR, relative to GAPDH); assay type: cell-based; details: splenocytes of diabetic NOD mice, 2 ng/ml anti-mouse CD28, 100 mM peptide, 3 hr
Protocol: as §3, §4, §5

TGF-β1 = TGF-β1 mRNA expression in anti-CD28-stimulated splenocytes (RT-PCR, relative to GAPDH); assay type: cell-based; details: splenocytes of diabetic NOD mice, 2 ng/ml anti-mouse CD28, 100 mM peptide, 72 hr
Protocol: as §3, §4, §5

Row | Substance | percentage of islets in insulitis stage 3 compared to the negative control group [1] | percentage of islets in stage 0 (no insulitis) compared to the negative control group [1] | percentage of islets in stage 0 compared to the normal group [1] | percentages of islets in insulitis stages 0-2 compared to the negative control group [1] | blood glucose levels [2] | IFN-γ mRNA expression level compared to the negative control group (anti-CD28) (IFN-γ) | TNF-α mRNA expression level compared to the negative control group (anti-CD28) (TNF-α) | TGF-β1 mRNA expression level compared to the negative control group (anti-CD28) (TGF-β1)
1 | YGAGAGAGY [Example 1] | decreased | approximately doubled | higher | increased | decreased significantly and then remained in the normal range | reduced | reduced | increased
2 | YGAGAG [Comparative Example 2] |  |  |  |  |  | did not greatly change | increase | did not greatly change
3 | GAGAGY [Comparative Example 1] |  |  |  |  |  | did not greatly change | did not greatly change | did not greatly change
